# Assay results as given in US20240270821A1, “GIP/GLP1/GCG TRI-RECEPTOR AGONISTS AND USES THEREOF” (priority 2023, published 2024).
# Where two headings read alike, the source gives them in different places. Starred links: 1 amine or outer side, 2 acyl side, 3 side chain; linkers in the order of their positions; H or OH if unused. Non-standard residues stand in square brackets, D forms with d. Residues, ends and D or L forms follow the SMILES beside them. Groups on a side chain read outwards from the residue. No end group written: not given here. *: point of attachment. C18 diacid = O=C(O)CCCCCCCCCCCCCCCCC(=O)*; αMePhe(2-F) = C[C@](N)(Cc1ccccc1F)C(=O)O; γGlu = O=C(O)[C@H](CCC(=O)[*:2])N[*:1]; NMeY = CN[C@@H](Cc1ccc(O)cc1)C(=O)O; αMe4Pal = C[C@](N)(Cc1ccncc1)C(=O)O; αMeY = C[C@](N)(Cc1ccc(O)cc1)C(=O)O; Hyp = O=C(O)[C@@H]1C[C@@H](O)CN1; 4Pal = N[C@@H](Cc1ccncc1)C(=O)O; αMeL = CC(C)C[C@](C)(N)C(=O)O; αMeS = C[C@](N)(CO)C(=O)O; Orn = NCCC[C@H](N)C(=O)O; AEEA = NCCOCCOCC(=O)O; Aib = CC(C)(N)C(=O)O
# Tests used:
# Type in all cases: cell-based
# hGIPR [1] = target: T1, hGIPR (Homo sapiens, UniProt P48546); assay: Functional cAMP activity in the presence of 1% HSA; conditions: read-out: cAMP Rel EC50, hGIPR
# T1 sequence (P48546 22-466): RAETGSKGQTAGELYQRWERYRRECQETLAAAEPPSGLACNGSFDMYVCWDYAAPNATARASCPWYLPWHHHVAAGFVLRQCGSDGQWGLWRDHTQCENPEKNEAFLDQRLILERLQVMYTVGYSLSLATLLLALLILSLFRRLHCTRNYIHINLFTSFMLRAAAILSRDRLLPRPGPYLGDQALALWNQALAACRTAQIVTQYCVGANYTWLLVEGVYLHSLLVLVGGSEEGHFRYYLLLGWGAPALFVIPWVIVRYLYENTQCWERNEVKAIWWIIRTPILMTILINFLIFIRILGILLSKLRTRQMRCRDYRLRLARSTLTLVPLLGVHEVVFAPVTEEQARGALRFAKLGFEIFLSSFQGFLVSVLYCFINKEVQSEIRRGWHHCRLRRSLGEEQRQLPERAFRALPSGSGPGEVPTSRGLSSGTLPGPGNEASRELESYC
# hGLP-1R [2] = target: T2, hGLP-1R (Homo sapiens, UniProt P43220); assay: Functional cAMP activity in the presence of 1% HSA; conditions: read-out: cAMP Rel EC50, hGLP-1R
# T2 sequence (P43220 24-463): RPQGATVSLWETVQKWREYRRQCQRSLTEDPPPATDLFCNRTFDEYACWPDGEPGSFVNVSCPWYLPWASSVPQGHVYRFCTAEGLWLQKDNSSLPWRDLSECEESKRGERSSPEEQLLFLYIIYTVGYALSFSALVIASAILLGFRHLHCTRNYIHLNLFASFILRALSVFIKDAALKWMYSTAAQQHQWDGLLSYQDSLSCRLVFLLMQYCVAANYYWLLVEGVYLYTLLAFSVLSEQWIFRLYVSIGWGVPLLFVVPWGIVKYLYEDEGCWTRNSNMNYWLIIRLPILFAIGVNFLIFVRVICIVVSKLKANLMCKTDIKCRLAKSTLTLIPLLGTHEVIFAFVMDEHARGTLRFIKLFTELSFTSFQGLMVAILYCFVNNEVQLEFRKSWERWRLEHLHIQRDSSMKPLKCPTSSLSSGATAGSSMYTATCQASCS
# human GcgR = human GcgR (Homo sapiens, UniProt P47871); assay: Functional cAMP activity in the presence of 1% HSA; conditions: read-out: cAMP Rel EC50, hGcgR
# human GcgR, sequence (P47871 26-477): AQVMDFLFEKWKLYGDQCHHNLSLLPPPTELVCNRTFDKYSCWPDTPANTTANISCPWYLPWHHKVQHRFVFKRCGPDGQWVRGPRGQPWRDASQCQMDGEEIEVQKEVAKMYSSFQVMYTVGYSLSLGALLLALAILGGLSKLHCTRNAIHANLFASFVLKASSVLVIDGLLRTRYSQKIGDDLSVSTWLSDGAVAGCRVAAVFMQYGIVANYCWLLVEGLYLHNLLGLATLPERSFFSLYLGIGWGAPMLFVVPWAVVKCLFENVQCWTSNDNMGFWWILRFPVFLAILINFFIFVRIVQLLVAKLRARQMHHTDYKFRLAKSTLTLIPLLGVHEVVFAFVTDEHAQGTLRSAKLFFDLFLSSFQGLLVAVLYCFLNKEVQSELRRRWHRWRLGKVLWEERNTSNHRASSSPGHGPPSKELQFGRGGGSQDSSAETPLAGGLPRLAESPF
# hGIPR [3] = target: T1, hGIPR; assay: Functional cAMP activation in the presence of 0.1% casein (no HSA); conditions: read-out: Relative cAMP EC50, hGIPR;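 on Relative cAMP EC50, hGIPR: intracellular cAMP rise after 30 min at 37 °C read by HTRF against a standard curve, scaled between buffer alone (0%) and top control ligand concentration (100%), four-parameter fit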;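 on Relative cAMP EC50, hGLP-1R: intracellular cAMP rise after 30 min at 37 °C read by HTRF, normalized between buffer only (0%) and maximal control ligand (100%), four-parameter variable-slope fit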;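 on Relative cAMP EC50, hGcgR: intracellular cAMP rise after 30 min at 37 °C, read by HTRF against a cAMP standard curve, scaled from buffer only (0%) to maximal control ligand response (100%)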
# hGLP-1R [4] = target: T2, hGLP-1R; assay: as above; conditions: read-out: Relative cAMP EC50, hGLP-1R
# hGcgR = hGcgR (Homo sapiens, UniProt P47871); assay: as above; conditions: read-out: Relative cAMP EC50, hGcgR;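 further: intracellular cAMP rise after 30 min at 37 °C, read by HTRF against a cAMP standard curve, scaled from buffer only (0%) to maximal control ligand response (100%)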
# hGcgR, sequence (P47871 26-477): as above
# [5] = in the presence of 0.1% casein (no HSA), geometric mean
# [6] = 0.1% casein, no HSA, geometric mean
Compound,EC50 (hGIPR [1]) [nM],EC50 (hGLP-1R [2]) [nM],EC50 (human GcgR) [nM],EC50 (hGIPR [3]) [nM],EC50 (hGLP-1R [4]) [nM],EC50 (hGcgR) [nM],EC50 (hGIPR [3]; [6]) [nM],EC50 (hGLP-1R [4]; [6]) [nM],EC50 (hGcgR; [6]) [nM],EC50 (hGIPR [3]; [5]) [nM],EC50 (hGLP-1R [4]; [5]) [nM],EC50 (hGcgR; [5]) [nM]
Y[Aib]QGTFTSD[4Pal]SQ[αMeL]LDKK([Glu-γGlu-C18 diacid])AQ[αMe4Pal]AFIEYLIAGGPSSGAPPPSGE-NH2 [Example 1086],21.2,496,3140,–,–,–,–,–,–,0.117,1.23,12
H-Y[Aib]QGTFTSD[4Pal]S[Orn][αMeL]LDKK([AEEA-γGlu-C18 diacid])AQ[Aib]AFIEYLLE[dA]GPSS[Aib]APPPSGT-NH2 [Example 275],27.7,692,882,–,–,–,–,–,–,0.318,4.93,7.8
H-Y[Aib]QGTFTSDFS[Orn][αMeL]LDKK([AEEA-γGlu-C18 diacid])AQ[Aib]AFIEYLLEGGPSSGAP[Hyp]PGGS-NH2 [Example 236],24.8,261,309,–,–,–,–,–,–,0.309,3.33,2.23
H-Y[Aib]QGTFTSD[4Pal]SQ[αMeL]LD[Orn]K([γGlu-γGlu-C18 diacid])AQ[αMe4Pal]AFIEYLIAGGPSSGEPPPSGS-NH2 [Example 1007],12,95.1,636,–,–,–,–,–,–,0.116,0.668,5.34
[NMeY][Aib]QGTFTSD[4Pal][αMeS]I[αMeL]LD[Orn]K([dE-γGlu-C18 diacid])AQ[αMe4Pal]QFIQ[αMeY]LIE[Aib]GPSSGAPPPSGGGE-NH2 [Example 1135],0.864,63.2,142,–,–,–,–,–,–,0.0126,0.746,1.76
Y[Aib]QGTFTSD[4Pal]SQ[αMeL]LDKK([AEEA-γGlu-C18 diacid])AQ[αMe4Pal]AFIEYLIE[dA]GPSSGAPPPSGS-NH2 [Example 829],22.4,130,325,–,–,–,–,–,–,0.124,1.15,2.41
Y[Aib]QGT[αMePhe(2-F)]TSD[4Pal][αMeS]I[αMeL]LD[Orn]K([AEEA-γGlu-C18 diacid])AQ[αMe4Pal]EFI[dE][αMeY]LIEGGPSSGAPPPESE-NH2 [Example 1146],0.825,40.1,198,–,–,–,–,–,–,0.00628,0.281,1.22

# Now from value to compound, other results behind:
EC50 (hGIPR [1]) [nM],EC50 (hGLP-1R [2]) [nM],EC50 (human GcgR) [nM],EC50 (hGIPR [3]) [nM],EC50 (hGLP-1R [4]) [nM],EC50 (hGcgR) [nM],EC50 (hGIPR [3]; [6]) [nM],EC50 (hGLP-1R [4]; [6]) [nM],EC50 (hGcgR; [6]) [nM],Compound,EC50 (hGIPR [3]; [5]) [nM],EC50 (hGLP-1R [4]; [5]) [nM],EC50 (hGcgR; [5]) [nM]
2.73,80.4,172,–,–,–,–,–,–,H-Y[Aib]QGTFTSD[4Pal][αMeS]Q[αMeL]LD[Orn]K([dE-γGlu-C18 diacid])AQ[αMe4Pal]QFIE[αMeY]LIA[Aib]GPSSGEPPPSGGGE-NH2 [Example 1182],0.0316,0.797,1.24
1.32,40.7,236,0.012,0.386,1.97,–,–,–,Y[Aib]QGT[αMePhe(2-F)]TSD[4Pal][αMeS]I[αMeL]LD[Orn]K([AEEA-γGlu-C18 diacid])AQ[αMe4Pal]EFI[dE][αMeY]LVEGGPSSGEPPPSGGGE-NH2 [Example 735],–,–,–
0.967,24.8,275,0.0164,0.341,4.04,–,–,–,Y[Aib]QGT[αMePhe(2-F)]TSD[4Pal][αMeS]I[αMeL]LD[Orn]K([γGlu-γGlu-C18 diacid])AQ[Aib][Orn]FI[dE]YLIEGGPSSGEPPPSGTE-NH2 [Example 521],–,–,–
1.95,20.6,261,0.0184,0.374,7.37,–,–,–,CC[C@H](C)[C@H](NC(=O)[C@H](CC(C)C)NC(=O)[C@](C)(Cc1ccncc1)NC(=O)[C@@H](CCC(=O)O)NC(=O)[C@@H](NC(=O)[C@H](Cc1ccccc1)NC(=O)[C@H](CCCN)NC(=O)C(C)(C)NC(=O)[C@H](CCC(N)=O)NC(=O)[C@H](C)NC(=O)[C@H](CCCCNC(=O)COCCOCCNC(=O)CC[C@H](NC(=O)CCCCCCCCCCCCCCCCC(=O)O)C(=O)O)NC(=O)[C@H](CCCN)NC(=O)[C@H](CC(=O)O)NC(=O)[C@H](CC(C)C)NC(=O)[C@](C)(CC(C)C)NC(=O)[C@@H](NC(=O)[C@](C)(CO)NC(=O)[C@H](Cc1ccncc1)NC(=O)[C@H](CC(=O)O)NC(=O)[C@H](CO)NC(=O)[C@@H](NC(=O)[C@](C)(Cc1ccccc1F)NC(=O)[C@@H](NC(=O)CNC(=O)[C@H](CCC(N)=O)NC(=O)C(C)(C)NC(=O)[C@@H](N)Cc1ccc(O)cc1)[C@@H](C)O)[C@@H](C)O)[C@@H](C)CC)[C@@H](C)CC)C(=O)N[C@@H](CCC(=O)O)C(=O)NCC(=O)NCC(=O)N1CCC[C@H]1C(=O)N[C@@H](CO)C(=O)N[C@@H](CO)C(=O)NCC(=O)N[C@@H](CCC(=O)O)C(=O)N1CCC[C@H]1C(=O)N1CCC[C@H]1C(=O)N1CCC[C@H]1C(=O)N[C@@H](CCC(=O)O)C(N)=O [Example 453] (H-Y[Aib]QGT[αMePhe(2-F)]TSD[4Pal][αMeS]I[αMeL]LD[Orn]K([AEEA-γGlu-C18 diacid])AQ[Aib][Orn]FI[dE][αMe4Pal]LIEGGPSSGEPPPE-NH2),–,–,–
9.87,557,276,–,–,–,–,–,–,H-Y[Aib]QGTFTSD[4Pal]S[Orn][αMeL]LDKK([γGlu-γGlu-C18 diacid])AQ[αMe4Pal]AFIE[αMe4Pal]LIE[Aib]GPSSGEPPPSGSE-NH2 [Example 990],0.115,5.78,2.47
0.67,61,314,–,–,–,0.00663,0.475,1.8,Y[Aib]QGT[αMePhe(2-F)]TSD[4Pal][αMeS]I[αMeL]LD[Orn]K([AEEA-γGlu-C18 diacid])AQ[αMe4Pal]EFI[dE][αMeY]LIEGGPPS[Aib][Orn]PPPSGSE-NH2 [Example 1198],–,–,–
0.993,12.5,230,0.00913,0.19,3.48,–,–,–,CC[C@H](C)[C@H](NC(=O)[C@H](CC(C)C)NC(=O)[C@](C)(Cc1ccc(O)cc1)NC(=O)[C@@H](CCC(=O)O)NC(=O)[C@@H](NC(=O)[C@H](Cc1ccccc1)NC(=O)[C@H](CC(N)=O)NC(=O)C(C)(C)NC(=O)[C@H](CCC(N)=O)NC(=O)[C@H](C)NC(=O)[C@H](CCCCNC(=O)COCCOCCNC(=O)CC[C@H](NC(=O)CCCCCCCCCCCCCCCCC(=O)O)C(=O)O)NC(=O)[C@H](CCCN)NC(=O)[C@H](CC(=O)O)NC(=O)[C@H](CC(C)C)NC(=O)[C@](C)(CC(C)C)NC(=O)[C@@H](NC(=O)[C@](C)(CO)NC(=O)[C@H](Cc1ccncc1)NC(=O)[C@H](CC(=O)O)NC(=O)[C@H](CO)NC(=O)[C@@H](NC(=O)[C@](C)(Cc1ccccc1F)NC(=O)[C@@H](NC(=O)CNC(=O)[C@H](CCC(N)=O)NC(=O)C(C)(C)NC(=O)[C@@H](N)Cc1ccc(O)cc1)[C@@H](C)O)[C@@H](C)O)[C@@H](C)CC)[C@@H](C)CC)C(=O)N[C@@H](CCC(=O)O)C(=O)NCC(=O)NCC(=O)N1CCC[C@H]1C(=O)N[C@@H](CO)C(=O)N[C@@H](CO)C(=O)NCC(=O)N[C@@H](CCC(=O)O)C(=O)N1CCC[C@H]1C(=O)N1CCC[C@H]1C(=O)N1CCC[C@H]1C(=O)N[C@@H](CCC(=O)O)C(N)=O [Example 456] (H-Y[Aib]QGT[αMePhe(2-F)]TSD[4Pal][αMeS]I[αMeL]LD[Orn]K([AEEA-γGlu-C18 diacid])AQ[Aib]NFI[dE][αMeY]LIEGGPSSGEPPPE-NH2),–,–,–
